Data on 6 compounds can be found in patent publication US20120022045A1, “BRIDGED COMPOUNDS AS HIV INTEGRASE INHIBITORS” (priority 2009, published 2012).

What all share (format): cell-based
Experiment [1] concerns HIV-1. The experiment can be described thus: Inhibition of acute HIV-1 infection of T-lymphoid cells (spread assay). The following applies: 10% FBS, read-out: IC95 (nM) in the presence of 10% FBS. As to the method: Assays for the inhibition of acute HIV-1 infection of T-lymphoid cells were conducted in accordance with Vacca, J. P. et al., Proc. Natl. Acad. Sci. USA 1994, 91: 4096.

The test system of experiment [2] is HIV-1 wild type IIIB. As to the kind of experiment: Single cycle infectivity assay in HeLa P4-2 cells, wild type virus. The following applies: wild type IIIB. As to the method: (§1) An assay for measuring the inhibition of acute HIV-1 infection with HeLa P4-2 cells in a single cycle infectivity assay was conducted using methods described in Joyce et al., J. Biol. Chem. 2002, 277: 45811, Hazuda et al., Science 2000, 287: 646, and Kimpton et al, J. Virol. 1992, 66: 2232. Proviral plasmids encoding viruses containing specific mutations in the integrase gene (N155H, Q148R, Y143R, E92Q, or G140S/Q148H) were generated by site-directed mutagenesis, and viruses were produced by transfecting 293T cells with the appropriate proviral plasmids.

The test system of experiment [3] is HIV-1 integrase mutant virus N155H. The experiment can be described thus: Single cycle infectivity assay in HeLa P4-2 cells, integrase mutant N155H virus. The following applies: fold shift in IC50 versus wild type IIIB. Here is the method:
as §1

Experiment [4] deals with HIV-1 integrase mutant virus Q148R. The experiment can be described thus: Single cycle infectivity assay in HeLa P4-2 cells, integrase mutant Q148R virus. The settings on record: fold shift in IC50 versus wild type IIIB. Here is the method: as §1
Experiment [5] concerns HIV-1 integrase mutant virus Y143R. The experiment can be described thus: Single cycle infectivity assay in HeLa P4-2 cells, integrase mutant Y143R virus. The following applies: fold shift in IC50 versus wild type IIIB. As to the method: as §1
The subject of experiment [6] is HIV-1 integrase mutant virus G140S/Q148H. As to the kind of experiment: Single cycle infectivity assay in HeLa P4-2 cells, integrase mutant G140S/Q148H virus. The settings on record: fold shift in IC50 versus wild type IIIB. As to the method:
as §1

As usually defined, the IC95 is the point of the concentration-response curve where the effect stands at 95%. In general, IC50 refers to the concentration that inhibits the measured activity by half. Higher therefore signals weaker potency. `CCC1C2CCC(N(C)C(=O)C(=O)N(C)C)(CO2)c2nc(C(=O)NCc3ccc(F)cc3)c(O)c(=O)n21` (single isomer, unassigned) [Example 25B, N-(8-ethyl-4-{[(4-fluorobenzyl)amino]carbonyl}-5-hydroxy-6-oxo-10-oxa-3,7-diazatricyclo[7.2.2.0^2,7]trideca-2,4-dien-1-yl)-N,N′,N′-trimethylethanediamide]: in experiment [1], the IC95 stood at 7.9 nM. In addition, the IC50 in experiment [2] came to 8 nM. Besides, the “N155H (shift)” value in experiment [3] is on record as 1 fold. In experiment [4], the “Q148R (shift)” value worked out at 1 fold. Moreover, the “Y143R (shift)” value in experiment [5] worked out at 1 fold. For the same compound, the “G140S/Q148H (shift)” value in experiment [6] was 1 fold.
Consider `CCC1C2CCC(N(C)C(=O)C(=O)N(C)C)(CO2)c2nc(C(=O)NCc3ccc(F)cc3)c(O)c(=O)n21` (single isomer, unassigned) [Example 25C, N-(8-ethyl-4-{[(4-fluorobenzyl)amino]carbonyl}-5-hydroxy-6-oxo-10-oxa-3,7-diazatricyclo[7.2.2.0^2,7]trideca-2,4-dien-1-yl)-N,N′,N′-trimethylethanediamide], for which the IC95 in experiment [1] came out at 10.8 nM. Moreover, the IC50 in experiment [2] came to 6 nM. In addition, the “N155H (shift)” value in experiment [3] worked out at 6 fold. For the same compound, the “Q148R (shift)” value in experiment [4] came out at 4 fold. Further, in experiment [5], the “Y143R (shift)” value stood at 3 fold. In addition, the “G140S/Q148H (shift)” value in experiment [6] amounted to 88 fold.
As for `CCC1C2CCC(N(C)C(=O)C(=O)N(C)C)(CO2)c2nc(C(=O)NCc3ccc(F)cc3)c(O)c(=O)n21` (single isomer, unassigned) [Example 25D, N-(8-ethyl-4-{[(4-fluorobenzyl)amino]carbonyl}-5-hydroxy-6-oxo-10-oxa-3,7-diazatricyclo[7.2.2.0^2,7]trideca-2,4-dien-1-yl)-N,N′,N′-trimethylethanediamide], the concentration for an effect of 95% (IC95) in experiment [1] is listed as 7.2 nM. Also, in experiment [2], inhibition was half-maximal at 15 nM (IC50). Moreover, the “N155H (shift)” value in experiment [3] stood at 98 fold. In addition, in experiment [4], the “Q148R (shift)” value was determined as 38 fold. Also, the “Y143R (shift)” value in experiment [5] was found to be 3 fold. The “G140S/Q148H (shift)” value in experiment [6] was above 111 fold.
`CCC1C2CCC(NC(=O)C(=O)N(C)C)(CO2)c2nc(C(=O)NCc3ccc(F)cc3)c(O)c(=O)n21` (single isomer, unassigned) [Example 26A, N′-(8-ethyl-4-{[(4-fluorobenzyl)amino]carbonyl}-5-hydroxy-6-oxo-10-oxa-3,7-diazatricyclo[7.2.2.0^2,7]trideca-2,4-dien-1-yl)-N-dimethylethanediamide]: the IC95 in experiment [1] was determined as 16.0 nM. The same compound yielded an IC50 in experiment [2] of 24 nM. The “N155H (shift)” value in experiment [3] came to 9 fold. Moreover, the “Q148R (shift)” value in experiment [4] is listed as 9 fold. For the same compound, the “Y143R (shift)” value in experiment [5] was determined as 2 fold. For the same compound, the “G140S/Q148H (shift)” value in experiment [6] was above 70 fold.
`CCC1C2CCC(NC(=O)C(=O)N(C)C)(CO2)c2nc(C(=O)NCc3ccc(F)cc3)c(O)c(=O)n21` (single isomer, unassigned) [Example 26B, N′-(8-ethyl-4-{[(4-fluorobenzyl)amino]carbonyl}-5-hydroxy-6-oxo-10-oxa-3,7-diazatricyclo[7.2.2.0^2,7]trideca-2,4-dien-1-yl)-N-dimethylethanediamide]: in experiment [1], the concentration for an effect of 95% (IC95) was found to be 22.6 nM. The same compound displayed an IC50 in experiment [2] of 36 nM. In addition, in experiment [3], the “N155H (shift)” value worked out at 1 fold. For the same compound, the “Q148R (shift)” value in experiment [4] was 1 fold. The “Y143R (shift)” value in experiment [5] was found to be 1 fold. For the same compound, the “G140S/Q148H (shift)” value in experiment [6] is 1 fold.
Regarding `CCC1C2CCC(NC(=O)C(=O)N(C)C)(CO2)c2nc(C(=O)NCc3ccc(F)cc3)c(O)c(=O)n21` (single isomer, unassigned) [Example 26C, N′-(8-ethyl-4-{[(4-fluorobenzyl)amino]carbonyl}-5-hydroxy-6-oxo-10-oxa-3,7-diazatricyclo[7.2.2.0^2,7]trideca-2,4-dien-1-yl)-N-dimethylethanediamide], the IC95 in experiment [1] was 18.1 nM. The compound further yielded an IC50 in experiment [2] of 23 nM. Also, the “N155H (shift)” value in experiment [3] came out at 12 fold. In addition, the “Q148R (shift)” value in experiment [4] amounted to 9 fold. Also, in experiment [5], the “Y143R (shift)” value is given as 2 fold. In experiment [6], the “G140S/Q148H (shift)” value is 26 fold.
